Results published in US11021687B2, “Production of differentiated enteroendocrine cells and insulin producing cells” (Massachusetts Institute of Technology, priority 2016, dated 2021).
Read-outs that look alike come from different tables or passages of the source.

Experiments:
[1] = test system: intestinal stem cells; assay: mRNA expression (qPCR) of ChgA and other lineage markers in differentiated intestinal stem cells; format: cell-based, mouse; conditions: for EEC marker ChgA expression / expression of markers for K cell (Gip), L cell (Gcg), and I cell (Cck): 5 days 2-step protocol, Tubastatin A in step 1, Tranylcypromine in both steps; for expression of Goblet cell marker (Muc2) and Paneth cell marker (Lyz1): 24-well validation; for expression of enteroendocrine cell marker ChgA: multiple conditions (FIG. 6); for differentiation towards EEC (ChgA expression): added to Notch and EGFR/MEK/ERK inhibition combination without R-Spondin1; for expression of functional EEC markers such as Gip, Gcg, Cck, Pyy: relative to reference gene Hprt; for ChgA expression of the differentiated cells: versus previous differentiation conditions (FIG. 21)
Source text: “mRNA ChgA Expression Assay” refers to an assay used to determine the relative ChgA mRNA expression level in a cell population. For example, the assay can determine ChgA mRNA expression level of a differentiated cell population following treatment with agents being tested, as compared to an untested population of post-natal stem cells. In an example of an mRNA ChgA Expression Assay, the cells were collected and the RNA is extracted from the cells using an RNA extraction kit (such as RNeasy Mini kit, Qiagen). The ChgA expression level is then assessed by Quantitative real-time PCR using a one-step qPCR kit (such as QuantiTech Probe PCR kit, Qiagen) and ChgA primers and probes (such as commercially available Taqman probe for mouse ChgA, Life Technologies).
(§1) Organoids or differentiated cells were harvested and RNA was extracted using RNeasy Micro Kit (Qiagen) according to the manufacturer's instruction. Quantitative real-time PCR was performed with QuantiTect Probe PCR kit (Qiagen) using commercially available primers and TaqMan probes (Life Technologies).
Cells were then cultured with EGF, Noggin, and DAPT (END), as well as small molecules. After 2-3 days of differentiation, the cells lysed and ChgA expression was measured by qRT-PCR.
Small molecules were further validated using a 24-well plate culture and the differentiation system. […] The expression of markers of secretory lineage cells including goblet cells (Muc2), enteroendocrine cells (ChgA), and Paneth cells (Lyz1) were measured.

[2] = test system: intestinal stem cells; assay: Ngn3 mRNA expression during EEC differentiation; format: cell-based, mouse
Experimental: “Ngn3 Assay” as used herein is an assay used to determine the extent of expression of Ngn3 in cells, such as cells subjected to a differentiation protocol. In an exemplary Ngn3 Assay, RNA is isolated from cells that have been cultured according to a differentiation protocol, and quantitative real-time PCR is performed using commercially available primers and probes (such as Taqman probes) to determine an extent of Ngn3 expression in the cells.
as §1
There has been prior speculation that Ngn3 positive secretory progenitors differentiate to EECs (Genes Dev. 2002).

[3] = test system: differentiated intestinal stem cells; assay: Insulin-GFP reporter expression (FACS) in differentiated intestinal stem cells; format: cell-based, mouse; conditions: for optimal concentration in inducing insulin-GFP expression: dose response, day 5; for percentage of Insulin-GFP+ cells: further addition to 616452, day 5
Source text: “Insulin Activity Assay” as used herein is an assay used to determine the extent to which insulin gene transcription, translation or insulin release has been activated in a cell population. In an exemplary Insulin Activity Assay, the initial cells are isolated from the intestine of an Insulin-GFP mouse such as […] mouse (also referred to as the MIT-GFP mouse, Jackson lab stock no.: 006864). Intestinal crypts are isolated from the proximal half of the intestine. […] The cells are then passaged for 1-2 times to create a starting cell population for the assay. To test the capacity of agents to activate insulin gene transcription, translation or insulin release, the cells are incubated with appropriate culture media (e.g. aforementioned crypt culture media), growth factors and/or other agents being tested. Appropriate culture media, including crypt culture media as well as the agents being assessed, are added into each well and incubated with the cells for a period of 2-10 days with media change every 2 days. The fraction of insulin-GFP positive cells (i.e., cells in which the insulin-GFP reporter is activated) can be quantified using a flow cytometer to measure the fraction of GFP+ cell population present in the total cell population. Also, the average insulin activity of a cell population can be measured by measuring the average mRNA expression level of insulin of the population normalized using suitable references or housekeeping genes (e.g., using mRNA expression of Hprt as a baseline).

[4] = test system: differentiated cell colonies
[5] = test system: gastrointestinal stem cells; assay: Insulin / Nkx6.1 mRNA expression (qPCR), 3-stage conversion to insulin producing cells; format: cell-based, mouse
Source text: “mRNA Insulin Expression Assay” refers to an assay used to determine the relative insulin mRNA expression level of a cell population. For example, the assay can determine the insulin mRNA level expressed in a cell population treated to increase the expression of insulin in the cells, as compared to an untreated population of cells. In an exemplary mRNA Insulin Expression Assay, the cells were collected and the RNA is extracted from the cells using an RNA extraction kit (such as RNeasy Mini kit, Qiagen). The insulin expression level is then assessed by Quantitative real-time PCR using a one-step qPCR kit (such as QuantiTech Probe PCR kit, Qiagen) and Ins1 or Ins2 primers and probes (such as the commercially available TaqMan probe for mouse Ins1 and Ins2, Life Technologies). The relative insulin mRNA expression can be determined relative to a baseline or other marker, such as Hprt mRNA expression level or other baseline marker.
as §1
Based on the protocol to convert gastrointestinal stem cells into insulin producing cells, a 3-stage process was developed, specifically, Day 0-1 as Stage 1, Day 1-3 as Stage 2, Day 3-5 as Stage 3. After Stage 3, the cells turn on significant level of Insulin expression as indicated by Ins-EGFP expression and qPCR for Insulin mRNA expression. Optionally, the cells can be further cultured for 1-2 weeks, as Stage 4. For each stage, a set of specific combination of small molecules (and/or growth factors) were added. The objective was to optimize the reprogramming protocol to increase insulin expression, specifically Insulin mRNA expression for each stage, by screening and testing new small molecules (or growth factors).

[6] = ENRD conditions, 2 days of differentiation
[7] = 96-well screening, END conditions, 2-3 days
[8] = 2 days, added after removal of R-spondin1
[9] = continuing culture of Islet-like Insulin expression cell colonies
[10] = added in step 2 of 2-step protocol
[11] = added in step 1 only versus both steps

N[C@@H]1C[C@H]1c1ccccc1 (racemic) [Tranylcypromine]
expression of Goblet cell (Muc2) and Paneth cell (Lyz1) markers ([1]; 2-step protocol, 5 days): significantly decreased
EEC marker ChgA expression [1]: increased
expression of markers for K cell (Gip), L cell (Gcg), and I cell (Cck) [1]: also increased
ChgA expression [1, 6]: increased
Ngn3 expression [2, 6]: increase

Nc1ncn([C@@H]2O[C@H](CO)[C@@H](O)[C@H]2O)c(=O)n1 [5-Aza, 5-Azacytidine]
optimal concentration in inducing insulin-GFP expression [3]: 0.5 to 1 µM
percentage of Insulin-GFP+ cells [3]: subsequently increased
cell death in the culture [4]: induced cell death

Nc1ncn([C@H]2C[C@H](O)[C@@H](CO)O2)c(=O)n1 [5Aza, 5-aza-2′-deoxycytidine]
Insulin mRNA expression ([5]; treatment extended from Stage 1 only to Stage 1 and Stage 2): slightly increased

O=C(NC[C@H](O)CO)c1ccncc1Nc1ccc(I)cc1F [AS703026]
expression of Goblet cell marker (Muc2) and Paneth cell marker (Lyz1) ([1]; END conditions): not similarly increased
ChgA expression [1, 7]: increased
expression of enteroendocrine cell marker ChgA [1]: specifically increased
Ngn3 expression [2, 8]: further decreased

COc1cc2ncnc(Nc3ccc(NC(=O)c4ccccc4)cc3)c2cc1OC [Aurora Kinase Inhibitor II]
Insulin mRNA expression ([5]; added in Stage 3): increase

COC(=O)C1=C(C)NC(C)=C([N+](=O)[O-])C1c1ccccc1C(F)(F)F (centres unmarked) [BayK 8644]
stages of addition giving highest activity [5]: highest activity when added in Stages 1-3
Insulin mRNA expression ([5]; added in Stage 1): increased
concentration of highest activity / optimal concentration in promoting Insulin expression ([5]; dose response): 2 µM
effect of removal [4, 9]: could be removed without much influence

Cc1c[nH]c(-c2cnc(NCCNc3ccc(C#N)cn3)nc2-c2ccc(Cl)cc2Cl)n1 [CHIR99021, 6-[[2-[[4-(2,4-dichlorophenyl)-5-(5-methyl-1H-imidazol-2-yl)-2-pyrimidinyl]amino]ethyl]amino]-3-pyridinecarbonitrile]
Insulin mRNA expression ([5]; Stage 3, combined with T3): further increased
Insulin mRNA expression ([5]; added in Stage 3): greatly increased
differentiation towards EEC (ChgA expression) [1]: did not further increase
GFP expression ([3]; added in Step 1 to increase Wnt activation, 5 days): did not increase

CC(C)Oc1ccc(-c2cnc3c(-c4ccnc5ccccc45)cnn3c2)cc1 [DMH-1]
expression of Nkx6.1 and insulin ([5]; added in Stages 2-3): increased
effect of removal [4, 9]: could be removed without much influence

C=C[C@@]1(C)CC(=O)[C@]2(O)[C@@]3(C)[C@@H](O)CCC(C)(C)[C@@H]3[C@H](O)[C@H](OC(C)=O)[C@@]2(C)O1 [Forskolin]
cell survival ([4]; 50-100 μM, added in Stage 3): improved cell survival
cell survival [4, 9]: increased cell survival

COc1cc2ncnc(Nc3ccc(F)c(Cl)c3)c2cc1OCCCN1CCOCC1 [Gefitinib]
expression of Goblet cell marker (Muc2) and Paneth cell marker (Lyz1) ([1]; END conditions): not similarly increased
ChgA expression [1, 7]: increased
expression of enteroendocrine cell marker ChgA [1]: specifically increased
Ngn3 expression [2, 8]: further decreased

O=C(O)c1ccc(O)c2ncccc12 [IOX1]
Insulin and Nkx6.1 expression ([5]; used at 5-10 μM): increased

O=C(NC1CC1)c1cc(-c2cccs2)on1 [ISX-9, N-cyclopropyl-5-(2-thienyl)-3-isoxazolecarboxamide]
optimal dose in promoting Insulin and Nkx6.1 expression ([5]; dose response): 10 to 20 µM
expression of functional EEC markers such as Gip, Gcg, Cck, Pyy [1]: decreased
ChgA expression of the differentiated cells [1]: further increased
number of GFP+ cells ([3]; added to the combination, 5 days in culture): further increase

Cc1ccc2nc(NC(=O)CSc3nc4c(c(=O)n3-c3ccccc3)SCC4)sc2c1 [IWP 2]
differentiation towards EEC (ChgA expression) [1]: did not further increase

CC(=O)N[C@@H](CS)C(=O)O [N-Acetylcysteine]
Insulin mRNA expression ([5]; Stage 3, combined with T3): further increased
Insulin mRNA expression ([5]; added in Stage 3): increased

N[C@@H](Cc1cc(I)c(Oc2ccc(O)c(I)c2)c(I)c1)C(=O)O [T3, Triiodothyronine]
Insulin mRNA expression ([5]; added in Stage 3): greatly increased

CN1CCc2c(c3ccccc3n2Cc2ccc(C(=O)NO)cc2)C1.Cl [Tubastatin A, N-Hydroxy-4-(2-methyl-1,2,3,4-tetrahydro-pyrido[4,3-b]indol-5-ylmethyl)benzamide hydrochloride]
EEC marker ChgA expression [1]: increased
expression of markers for K cell (Gip), L cell (Gcg), and I cell (Cck) [1]: also increased
ChgA expression [1, 6]: decreased
Ngn3 expression [2, 6]: increase

O=C1O[C@H]([C@@H](O)CO)C(O)=C1O [Vitamin C]
effect on conversion ([5]; added in Stage 2-3): beneficial effects
Insulin mRNA expression ([5]; added in Stage 3): did not show such effect

Cc1cc(-c2ccc(CC(=O)Nc3ccc(-c4cccnc4)cc3)cc2)ccn1 [Wnt-C59]
Insulin mRNA expression ([5]; addition delayed for 12 hours in Stage 2): increased
optimal dose in promoting Insulin and Nkx6.1 expression ([5]; dose response (FIG. 52)): 5 µM
Paneth cell marker Lyz1 expression ([1]; added in step 2): effectively decreased
ChgA expression [1, 10]: further increased
ChgA expression ([1]; delayed addition for 12-24 hours in step 2): further increases
ChgA expression of the differentiated cells [1]: further increased
percentage of Insulin-GFP+ cells [3]: subsequently increased

Cc1cccc(-c2n[nH]cc2-c2ccc3ncccc3n2)n1 [compound 616452, 2-[3-(6-methyl-2-pyridinyl)-1H-pyrazol-4-yl]-1,5naphthyridine]
Insulin mRNA (Ins2) ([5]; added in Stage 1-3 compared with Stage 2-3): increased
optimal dose in promoting Insulin and Nkx6.1 expression ([5]; dose response): 10 to 15 µM
expression of mature EEC markers (Gcg, Gip, Cck, Tph1, Sst, Sct, Pyy) ([1]; 2-step protocol): greatly increased
goblet cell marker Muc2 expression ([1]; 2-step protocol): decreased
Cck expression over the expression level in the ENR condition ([1]; 2-step protocol with Repsox): 430 ×
Gip expression over the expression level in the ENR condition ([1]; 2-step protocol with Repsox): 800 ×
Pyy expression over the expression level in the ENR condition ([1]; 2-step protocol with Repsox): 15,000 ×
Sct expression over the expression level in the ENR condition ([1]; 2-step protocol with Repsox): 300 ×
Tph1 expression over the expression level in the ENR condition ([1]; 2-step protocol with Repsox): 120 ×
ChgA level [1, 11]: comparable level
expression of mature EEC markers [1, 11]: greatly reduced
ChgA expression [1, 10]: greatly promoted
expression of functional EEC markers such as Gip, Gcg, Cck, Pyy [1]: greatly increase
optimal concentration in inducing insulin-GFP expression [3]: 5 µM
cells becoming GFP positive ([3]; during EEC differentiation from ISCs): about 1%
cell death in the culture [4]: induced cell death

EGF: epidermal growth factor
EEC marker (ChgA, Gip, Gcg, CCK) expression on removing EGF from the media ([1]; 5 days): further increased
dead cells in the lumen of the differentiated cell colony ([4]; EGF removed in both steps): more dead cells

Exendin-4: factor identified to increase Insulin mRNA expression
Insulin mRNA expression ([5]; added in Stage 3): increase
